Broadly, the IC50 is the concentration at which inhibition is half-maximal. A word on the Ki: it is the equilibrium dissociation constant of an inhibitor or competing ligand from its target.

Where two headings read alike, the source gives them in different places.

The values below come from article PMC3996484, “Apoptosis Therapy in Cancer: The First Single-molecule Co-activating p53 and the Translocator Protein in Glioblastoma” (Scientific Reports, 2014).

The target in data set [1] is T1, native human MDM2/p53 complex (Homo sapiens, UniProt Q00987).
T1 construct: U87MG cell lysates, containing the native MDM2/p53 complex; endogenous in cells; host or cells: U87MG human glioblastoma cells
The data set is described as follows: ELISA-based dissociation of native MDM2/p53 complex in U87MG cell lysates. Format: biochemical.
Method: After extensive washes, levels of the MDM2/p53 complex were quantified using an antibody specific for p53, and subsequently an HRP-conjugated antibody and a TMB substrate kit. (C), (D) U87MG cell lysates, containing the native MDM2/p53 complex, were pre-incubated with DMSO (control) or different concentrations of the indicated compounds. Then, lysates were captured on wells pre-coated with MDM2 antibody. After extensive washes, levels of the MDM2/p53 complex were quantified using an antibody specific for p53, and subsequently an HRP-conjugated antibody and a TMB substrate kit. Blank wells were obtained in the absence of p53 antibody. Data are expressed as absorbance at 450 nm minus blank values (A), (B), or as % of control set to 100% (C), (D), and represent the mean ± SEM of at least three independent experiments.
To test the ability of new compound to dissociate the native MDM2/p53 complex, a quantitative sandwich immune-enzymatic assay, on crude cell lysates obtained from U87 MG cells was developed. […] The TMB substrate kit (Thermo Fisher Scientific) allowed a colorimetric quantification of the MDM2/p53 complex. […] Absorbance's values at 450 nm were measured, background subtracted and sigmoid dose-response curves were generated using Graph Pad Prism 4 software, from which IC50 values of MDM2/p53 complex were derived.

The test system of data set [2] is U87MG cells. The data set is described as follows: Annexin V and 7-AAD staining (apoptosis). Format: cell-based, human. The procedure:
Dual staining with Annexin V coniugated to fluorescein-isothiocyanate (FITC) and 7-amino-actinomysin (7-AAD) was performed using the commercially available kit (Muse Annexin V and Dead Cell Kit; Merck KGaA, Darmstadt, Germany). […] Both floating and adherent cells were collected, centrifuged at 300 × g for 5 minutes and suspended in cell culture medium. Then, a 100 μl aliquot of cell suspension (about 5 × 10^4 cell/ml) was added to 100 μl of fluorescent reagent and incubated for 10 minutes at room temperature. After incubation, the percentages of living, apoptotic and dead cells were acquired and analyzed by Muse™ Cell Analyzer in accordance to the manufacture's guidelines. In cells undergoing apoptosis, annexin V binds to phosphatidylserine, which translocates to the outer leaflet of the cytoplasmatic membrane. Double staining is used to distinguish between viable, early apoptotic, and necrotic or late apoptotic cells. Annexin V:FITC […] cells were identified as early apoptotic. Cells which were Annexin V-FITC positive and 7-AAD positive were identified as cells in late apoptosis or necrotic.

Data set [3] relates to U87MG cells. Put plainly: Δψm dissipation in intact cells (JC-1, mitochondria isolated after cell treatment). Particulars: for Δψm dissipation: 10 μM, 24 h of cell treatment; for Δψm dissipation vs control: intact cells, 5 μM, 24 h.
Data set [4] concerns U87MG cells. Put plainly: Cell viability, Trypan blue exclusion assay. Format: cell-based, human. How it is done:
Each experiment was performed in duplicate. […] Each experiment was performed in duplicate.
The effects of compound treatment on U87MG cell viability were evaluated by Trypan blue exclusion assays. Briefly harvested cells were mixed with an equal volume of 0.4% trypan blue dye. For quantization of cell viability, blue and bright cells were counted, and viability was calculated as the percentage of live (bright) cells versus control set to 100%. U87MG cells were treated with different concentrations (10 nM–10 μM) of each compound and after 24 h of incubation viable cells were counted.

The target in data set [5] is T2, TSPO (Rattus norvegicus, UniProt P16257).
T2 construct: membranes homogenates obtained from kidney (20 μg of proteins) were incubated with 0.6 nM; from tissue; host or cells: kidney (crude mitochondrial membranes)
The data set is described as follows: Competitive [3H]PK11195 radioligand binding assay. Particulars: membrane homogenates from kidney, 0.6 nM [3H]PK11195; read-out: Ki, displacement of specific [3H]PK11195 binding. How it is done:
(§1) Figure 3 New synthesized compounds bind to TSPO and induce Δψm collapse. (A) [^3H]PK11195 radioligand binding: membranes homogenates obtained from kidney (20 μg of proteins) were incubated with 0.6 nM [^3H]PK11195 and different compounds concentration. Reaching equilibrium, samples were filtered and bound radioactivity was counted. […] (B) Evaluation of Δψm in isolated mitochondria: Mitochondria (5 μg of proteins) were treated with compound 1 (5 μM), or compound 7 (5 μM), or DMSO (control) for 15 min. […] Each experiment was performed in duplicate.
Binding studies were performed as previously described. Briefly, crude mitochondrial membranes, in 50 mM Tris-HCl pH 7.4 buffer, were incubated with 0.6 nM [^3H]PK 11195 in the presence of new synthesized compounds (0.1 nM–10 μM) in a final volume of 0.5 ml for 90 min at 4°C. Incubations were terminated by rapid filtration through GF/C glass fiber filters and washed three times with 4 ml of cold buffer. The radioactivity was measured by liquid scintillation counter. Non-specific binding was estimated in the presence of unlabeled 1 μM PK 11195. IC50 value was determined using Graph-Pad Prism computer program (Graph Pad Software, version 5.0; San Diego, CA).

For data set [6], the system named is p53 target genes (MDM2, p21, PUMA) in U87MG cells. The data set is described as follows: Relative mRNA quantification of p53 target genes (real-time RT-PCR). Format: cell-based, human. The note with it: for mRNA levels of p53 target genes (MDM2 and p21): 5 μM. The procedure: The assessment of p53 target gene mRNA levels was performed by real-time reverse transcription polymerase chain reaction (real-time RT-PCR)[16]. In brief, total RNA was extracted from control cells as well as from cells treated with compounds (5 μM) for different hours, using Rneasy® Mini Kit (Qiagen, Hilden, Germany) according to manufacturer's instructions. Purity of the RNA samples was determined by measuring the absorbance at 260:280 nm. cDNA synthesis was performed with 500 ng of RNA using i-Script cDNA synthesis kit (BioRad, Hercules, USA) following manufacturer's instructions. […] RT-PCR reactions consisted of 25 μL Fluocycle® II SYBR® (Euroclone, Milano, Italy), 1.5 μL of both 10 μM forward and reverse primers, 3 μL cDNA, and 19 μL of H2O. All reactions were performed for 40 cycles using 55°C as annealing temperature. The p53 target gene mRNA levels for each sample were normalized against β-actin mRNA levels, and relative expression was calculated by using Ct value. PCR specificity was verified by both the melting curve analysis and gel electrophoresis.
(In general: In qPCR the cycle at which signal appears reflects the starting amount.)

The test system of data set [7] is mitochondria isolated from the human GBM cell line U87MG. The data set is described as follows: Δψm dissipation in isolated mitochondria (JC-1). Format: biochemical. Particulars: isolated treated mitochondria, 5 μM, 15 min. The procedure:
as §1
Several evidences have shown that TSPO is a constituent of the MPTP, taking therefore part in dissipation of Δψm that occurs after MPTP opening, as well as in the release of proapoptotic inter-membrane proteins and in the induction of apoptosis. To assess whether compounds 1 and 7 could modulate MPT-pore opening through their selective binding to TSPO, Δψm was measured in mitochondria isolated from the human GBM cell line U87MG.

Data set [8] relates to p53 protein levels in U87MG cells. The data set is described as follows: p53 protein levels by Western blot. Format: cell-based, human. The note with it: 8 h incubation. The procedure:
Figure 6 New synthesized compounds induce p53 protein accumulation by dissociation of MDM2/p53 complex and stimulate transcription of p53 target genes in U87MG cells. […] Lysates were subjected to Western blot analysis using antibody to p53 (FL-393; Santa Cruz Biotechnology). […] The MDM2/p53 complex and the relative input of the proteins were detected by immunoblot. One representative Western blot is presented (left panel). […] (D) Relative mRNA quantification of p53 target genes: The relative mRNA quantification of p53 target genes (p21 and MDM2) was performed by real-time RT-PCR as describe in Methods. […] Each experiment was performed in duplicate.
The western blot analysis for the evaluation of p53 protein levels was performed as previously described. […] 30 μg of each sample was then resolved by SDS-PAGE (8.5%), transferred to PVDF membranes and probed overnight at 4°C with primary antibody anti-p53 (FL-393; Santa Cruz Biotechnology; 1:500). The primary antibody was detected using anti-rabbit IgG light chains conjugated to peroxidase (diluted 1:10.000). The peroxidase was detected using a chemioluminescent substrate (ECL, Perkin Elmer). Densitometric analysis of immunoreactive bands was performed using Image J Software.
(In general: A western blot detects proteins with antibodies after separation by electrophoresis.)

In data set [9] the test system is U87MG cells. The data set is described as follows: Senescence marker SA-β-Gal. Format: cell-based, human. Particulars: 5 μM, 24 h. From the text:
The senescence marker SA-β-Gal was detected as previously described[16] and cells were then washed in PBS (1×) and photographed at 100× magnification. Images of random light microscopic fields were captured (5 fields per well), and both blue and total cells were counted using ImageJ (ImageJ Software, version 1.41; USA).

Data set [10] is described as follows: Precipitation in NMR sample. Format: physicochemical. Particulars: added from DMSO stock, 20 mM TrisHCl, 150 mM KCl, pH 7.4. How it is done: NMR spectra were acquired at 25°C on a Varian Unity INOVA 700 MHz spectrometer equipped with a cryoprobe. NMR samples contained 0.1 mM of proteins in 20 mM TrisHCl, 150 mM KCl, pH 7.4, 5 mM β-mercaptoethanol, 0.02% NaN3. Water suppression was carried out by gradient echo[39]. NMR data were processed using the Bruker program BioSpin 3.0. For NMR ligand binding experiments, 300 μL of the protein sample containing 10% D2O, at a concentration of about 0.1 mM, and a 10 mM stock solution of compounds 7 and 1 in DMSO-d6 were used. The formal final molar ratio protein:inhibitor was 1:2.

For data set [11], the target named is T3, recombinant human MDM2/p53 complex (Homo sapiens, UniProt Q00987).
T3 construct: N-terminal region of MDM2 (residues 1–118); His-tag; made in house; host or cells: Escherichia coli BL21(DE3) RIL
Put plainly: NMR dissociation (AIDA) of recombinant MDM2/p53 complex. Format: binding. Particulars: 0.2 mM formal final concentration, complex 0.1 mM.
From the text: The method, named AIDA (for Antagonist Induced Dissociation Assay[26][27]), can work with complex made by a large protein fragment (larger than 30 kDa) and a small reporter protein (less than 20 kDa). AIDA makes use of two-dimensional^15N-HSQC spectra, however, in the presence of flexible protein residues, 1D proton NMR spectra may be sufficient for monitoring the states of the complex upon addition of ligands. Since the N-terminal domain of p53 is highly flexible, MDM2/p53 complex is suitable for 1D proton NMR application[26][28][29]. Particularly, the signals from ^NH^ε side chains of W23 and W53 are sharp in the free p53 1D proton spectrum. After the complex formation, W23 signal disappears, since W23 comprises the primary binding site for MDM2. In fact, residues 17–26 of p53 participate in well-defined structures of large MDM2/p53 complexes. In contrast, W53 is still not structured when p53 binds MDM2[26].
NMR spectra were acquired at 25°C on a Varian Unity INOVA 700 MHz spectrometer equipped with a cryoprobe. […] Water suppression was carried out by gradient echo[39]. NMR data were processed using the Bruker program BioSpin 3.0.

T1 sequence (Q00987 whole entry, one chain of several): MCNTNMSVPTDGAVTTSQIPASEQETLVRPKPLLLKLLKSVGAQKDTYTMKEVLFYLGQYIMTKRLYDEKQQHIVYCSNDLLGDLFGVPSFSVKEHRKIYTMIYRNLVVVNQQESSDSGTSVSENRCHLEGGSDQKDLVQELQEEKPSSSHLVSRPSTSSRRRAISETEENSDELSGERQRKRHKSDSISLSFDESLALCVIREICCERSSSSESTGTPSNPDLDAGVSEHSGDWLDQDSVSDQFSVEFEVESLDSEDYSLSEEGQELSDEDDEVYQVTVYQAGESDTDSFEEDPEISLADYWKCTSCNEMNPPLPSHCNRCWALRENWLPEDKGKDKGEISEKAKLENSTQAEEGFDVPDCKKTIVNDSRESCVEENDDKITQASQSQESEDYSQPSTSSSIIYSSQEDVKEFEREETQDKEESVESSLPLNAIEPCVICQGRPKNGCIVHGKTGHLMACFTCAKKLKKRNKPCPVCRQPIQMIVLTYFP
T3 sequence (Q00987 1-118, one chain of several): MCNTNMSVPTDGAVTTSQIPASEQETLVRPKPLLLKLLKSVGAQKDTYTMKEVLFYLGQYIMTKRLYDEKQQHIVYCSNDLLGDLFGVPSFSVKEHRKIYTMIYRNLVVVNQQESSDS

Regarding `O=C1[C@@H]2CS[C@@]3(C(=O)Nc4ccccc43)N2C(=O)N1Cc1ccc(Cl)cc1` [ISA27, reference compound], the IC50 in [1] was 122 ± 14.5 nM.
For `COc1ccc(C2=N[C@@H](c3ccc(Cl)cc3)[C@@H](c3ccc(Cl)cc3)N2C(=O)N2CCNC(=O)C2)c(OC(C)C)c1` [Nutlin-3, reference compound], the “induction of specific apoptotic parameters (Annexin V, PUMA mRNA)” value in data set [2] (10 μM, 24 h) is on record as “did not show any induction”. For the same molecule, the Δψm dissipation result in data set [3] is “only a marginal effect”. The “effect on U87MG cell viability” value in [4] (24 h) is listed as “dose-dependent reduction”.
On to `CCC(C)N(C)C(=O)c1cc2ccccc2c(-c2ccccc2Cl)n1` (stereo not shown) [PK11195], for which, in [3], the Δψm dissipation result is “significant Δψm dissipation”. In addition, the “inhibition of cell viability vs control” value in [4] (100 μM, 24 h, maximal effect) came to 52.0 ± 2.3%. For the same molecule, the “concentration from which inhibition of cell viability is significant” value in data set [4] (24 h) turned out to be 10 µM.
Regarding `CCOC(=O)[C@@H](Cc1ccccc1)NC(=O)[C@H](CC(C)C)NC(=O)C(=O)c1c(-c2ccccc2)[nH]c2ccccc12` [compound 1, (2-phenylindol-3-yl)glyoxyl-L-leucine-L-phenylalanine ethylester], the Ki in data set [5] came out at 438 ± 35 nM. Further, the “mRNA levels of p53 target genes (MDM2 and p21)” value in data set [6] is “increase significantly”. Besides, in data set [6] (16–24 h), the “increase of PUMA mRNA level” value is given as “approximately 4 fold”. The “Δψm dissipation vs control” value in data set [7] stood at 20.0 ± 1.8%; in data set [3], 47.0 ± 3.4%. Also, the “concentration at which p53 accumulation became significant” value in data set [8] was 5 µM. The “phosphatidylserine externalization (early and late apoptosis)” value in data set [2] (5 μM) was “significant phosphatidylserine externalization”. The “activity of the senescence marker β-galactosidase” value in data set [9] is “no activity”. The “actual concentration in MDM2/p53 NMR sample (sample precipitation)” value in data set [10] is reported as “lower than 0.2 mM”. Moreover, in data set [4] (Homo sapiens, U-87 MG, 24 h, read-out: IC50, U87MG cell survival), the IC50 came out at 2500 ± 400 nM.
Consider `CC(C)C[C@H](NC(=O)C(=O)c1c(-c2ccccc2)[nH]c2ccccc12)C(=O)N[C@H](Cc1ccccc1)C(=O)O` [compound 7, (2-phenylindol-3-yl)glyoxyl-L-leucine-L-phenylalanine], for which the Ki in data set [5] is 759 ± 56 nM. Also, the IC50 in data set [1] was 202 ± 21.2 nM; in [4] (Homo sapiens, U-87 MG, 24 h; read-out: IC50, U87MG cell survival), 2900 ± 500 nM. Further, the “mRNA levels of p53 target genes (MDM2 and p21)” value in [6] is on record as “increase significantly”. The results for the “Δψm dissipation vs control” value in data set [7] and in data set [3] were 43 ± 3.1% and 60.1 ± 3.2%, respectively. For the same molecule, the “p53 release from MDM2/p53 complex (W23 peak appears)” value in data set [11] is “complete p53 release”. In addition, the “concentration at which p53 accumulation became significant” value in [8] was found to be 5 µM.
